Measurements from BindingDB's records for doi:10.3109/14756366.2012.723206 (Yanbian University College of Pharmacy, 2013).

target: T1, Tyrosine-protein phosphatase non-receptor type 1 (Homo sapiens, UniProt P18031); test: Enzymatic Assay; settings: pH 6.5; 30 °C
T1 sequence (P18031 whole entry): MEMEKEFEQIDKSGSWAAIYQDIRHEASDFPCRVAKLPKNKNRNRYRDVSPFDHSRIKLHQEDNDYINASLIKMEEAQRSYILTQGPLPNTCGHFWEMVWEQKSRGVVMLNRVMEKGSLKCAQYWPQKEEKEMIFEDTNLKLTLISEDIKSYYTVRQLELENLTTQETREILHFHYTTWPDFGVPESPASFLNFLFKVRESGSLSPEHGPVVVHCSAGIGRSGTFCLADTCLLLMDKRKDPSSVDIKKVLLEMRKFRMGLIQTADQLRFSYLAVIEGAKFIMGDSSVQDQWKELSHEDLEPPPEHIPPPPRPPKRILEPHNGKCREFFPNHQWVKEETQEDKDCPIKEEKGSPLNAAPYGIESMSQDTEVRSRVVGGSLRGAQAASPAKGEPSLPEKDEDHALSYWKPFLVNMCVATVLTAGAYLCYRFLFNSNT
Protocol: Briefly, the enzymatic activity of the PTP1B catalytic domain was determinedat 30°C by monitoring the hydrolysis of pNPP. […] Assays were performed in a total volume of 100 μL containing 50 mmol/L 3-[N-morpholino]propane-sulfonic acid (MOPs), pH = 6.5, 2 mmol/L pNPP, and 30 nmol/L recombinant PTP1B, as well as the indicated concentrations of the inhibitor.

Row | SMILES | IC50 [µM]
1 | O=C1CC(c2ccc(Cl)cc2)Oc2cc(O)cc(O)c21 (stereo not given) [PTP inhibitor, 4f] | 3.6
2 | O=C1CC(c2cccc(F)c2)Oc2cc(O)cc(O)c21 (stereo not given) [PTP inhibitor, 4b] | 7.98
3 | O=C1CC(c2cccc(C(F)(F)F)c2)Oc2cc(O)cc(O)c21 (stereo not given) [PTP inhibitor, 4k] | 2.37
4 | O=C1CC(c2ccccc2)Oc2cc(O)cc(O)c21 (stereo not given) [PTP inhibitor, 4l] | 36.7
5 | O=C1CC(c2ccccc2F)Oc2cc(O)cc(O)c21 (stereo not given) [PTP inhibitor, 4a] | 9.06
6 | O=C1CC(c2ccccc2Br)Oc2cc(O)cc(O)c21 (stereo not given) [PTP inhibitor, 4h] | 4.9
7 | O=C1CC(c2ccccc2Cl)Oc2cc(O)cc(O)c21 (stereo not given) [PTP inhibitor, 4d] | 10.2

More lines, in order of falling IC50, values ahead:

Row | IC50 [µM] | SMILES
8 | 14.1 | Cc1ccc(C2CC(=O)c3c(O)cc(O)cc3O2)cc1 (stereo not given) [PTP inhibitor, 4m]
9 | 7.33 | O=C1CC(c2cccc(Br)c2)Oc2cc(O)cc(O)c21 (stereo not given) [PTP inhibitor, 4i]
10 | 4.18 | O=C1CC(c2cccc(Cl)c2)Oc2cc(O)cc(O)c21 (stereo not given) [PTP inhibitor, 4e]
11 | 3.48 | O=C1CC(c2ccc(Br)cc2)Oc2cc(O)cc(O)c21 (stereo not given) [PTP inhibitor, 4j]
12 | 2.66 | O=C1CC(c2ccc(F)cc2)Oc2cc(O)cc(O)c21 (stereo not given) [PTP inhibitor, 4c]
13 | 2.4 | O=C1CC(c2ccc(Cl)cc2Cl)Oc2cc(O)cc(O)c21 (stereo not given) [PTP inhibitor, 4g]

target: T2, Tyrosine-protein phosphatase non-receptor type 2 (Homo sapiens, UniProt P17706); test: Enzymatic Assay; settings: pH 6.5; 30 °C
T2 sequence (P17706 whole entry): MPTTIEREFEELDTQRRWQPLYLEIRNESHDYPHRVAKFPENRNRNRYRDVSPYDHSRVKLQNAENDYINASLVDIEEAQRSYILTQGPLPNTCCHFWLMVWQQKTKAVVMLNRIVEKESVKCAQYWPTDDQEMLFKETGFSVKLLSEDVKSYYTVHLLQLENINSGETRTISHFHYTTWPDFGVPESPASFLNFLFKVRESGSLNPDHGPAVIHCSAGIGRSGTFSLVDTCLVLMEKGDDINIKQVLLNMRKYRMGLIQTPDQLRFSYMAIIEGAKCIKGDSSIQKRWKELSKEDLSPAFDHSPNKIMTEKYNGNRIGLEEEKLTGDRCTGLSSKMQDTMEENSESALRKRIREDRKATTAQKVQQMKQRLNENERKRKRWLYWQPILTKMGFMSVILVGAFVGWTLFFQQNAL

Row | IC50 [µM] | SMILES
14 | 8.82 | O=C1CC(c2cccc(C(F)(F)F)c2)Oc2cc(O)cc(O)c21 (stereo not given) [PTP inhibitor, 4k]

target: T3, M-phase inducer phosphatase 2 (Homo sapiens, UniProt P30305); test: Enzymatic Assay; settings: pH 6.5; 30 °C
T3 sequence (P30305 whole entry): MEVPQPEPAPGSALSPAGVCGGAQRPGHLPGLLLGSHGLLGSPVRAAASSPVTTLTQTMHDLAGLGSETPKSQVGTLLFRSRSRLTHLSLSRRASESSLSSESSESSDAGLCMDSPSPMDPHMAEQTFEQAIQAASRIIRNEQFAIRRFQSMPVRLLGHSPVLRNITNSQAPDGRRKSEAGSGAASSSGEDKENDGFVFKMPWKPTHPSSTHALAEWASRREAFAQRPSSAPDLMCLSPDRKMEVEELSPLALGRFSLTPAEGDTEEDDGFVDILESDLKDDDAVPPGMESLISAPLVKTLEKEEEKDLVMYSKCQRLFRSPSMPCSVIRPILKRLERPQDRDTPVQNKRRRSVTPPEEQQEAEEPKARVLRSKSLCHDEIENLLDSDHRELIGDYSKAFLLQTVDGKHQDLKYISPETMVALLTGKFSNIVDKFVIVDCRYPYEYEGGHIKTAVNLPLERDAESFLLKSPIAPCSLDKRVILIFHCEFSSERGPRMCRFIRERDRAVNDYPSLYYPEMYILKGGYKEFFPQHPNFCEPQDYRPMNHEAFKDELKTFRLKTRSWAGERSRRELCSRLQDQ

Row | IC50 [µM] | SMILES
15 | 8.54 | O=C1CC(c2cccc(C(F)(F)F)c2)Oc2cc(O)cc(O)c21 (stereo not given) [PTP inhibitor, 4k]
